{
  "source": "patent US10472607B2",
  "about": "“Culture medium and method for inducing differentiation of pluripotent stem cells into neuroepithelial cells” (National Chung Hsing University, priority 2011, dated 2019)",
  "tested_on": "TW1 hESCs",
  "test": "Comparison of additive groups: morphology and Oct4/Nestin immunofluorescence",
  "type": "cell-based, human",
  "conditions": "compared to group 3 (BIO + SB431542)",
  "excerpt": "The TW1 hESCs were divided into four groups according to the additives at culture day 3. The detail of the above steps refers to the examples 1 to 3.\nReferring to the methods in examples 5 and 6, the protein expressions of Oct4 and Nestin in the each groups and the results were examined and shown in FIG. 9.",
  "data": [
    {"substance": "fibroblast growth factor-2 [FGF2]", "values": [
      {"measurement": "compaction and neural rosettes formation", "value": "further enhanced"}
    ]}
  ]
}
